{
  "source": "patent US20210018504A1",
  "about": "“SHON AS A PROGNOSTIC BIOMARKER FOR CANCER AND AS A PREDICTOR OF RESPONSE TO ENDOCRINE THERAPY” (priority 2012, published 2021)",
  "key": {"[1]": {"system": "SHON", "assay": "SHON expression in MCF-7 cells after 17β-estradiol treatment (RT-PCR, Western blot)", "format": "cell-based, human", "protocol": "(§1) FIGS. 12A-C. SHON is an estrogen inducible gene. (A) RT-PCR. MCF-7 cells were cultured for 24 h in RPMI media containing 10% foetal bovine serum (FBS). Prior to 17β-estradiol (E2) treatment, cells were further cultured for 72 h in phenol red-free medium containing 10% charcoal stripped-FBS. Cells were then treated with 10 nM of E2. Total RNAs were isolated from the cells at indicated time points and the expression of SHON mRNA was determined by One-Step RT-PCR kits (Qiagen) with the SHON-specific primer pairs of SHONc5 and SHONc3 (Table 1). β-ACTIN was included as the RNA input control using forward primer: 5′-ATCATATCGCCGCGCTCG-3′ (SEQ ID NO: 9) and reverse primer: 5′-CGCTCGGTGAGGATCTTCA-3′ (SEQ ID NO: 10). The bp sizes of amplified products are shown on the right. (B) MCF7-Vec and MCF7-SHON cells were treated with DMSO vehicle (−) or 10 nM of E2 (+) for 72 h in phenol red-free medium containing 10% charcoal stripped-FBS. The expression of SHON in whole cell lysates was determined by Western blot with the rabbit polyclonal SHONα antibody. Molecular weights of detected protein bands are shown on the right. (C) Total cell number assays. MCF7-Vec and MCF7-SHON stable cells were seeded in phenol-red free RPMI media with 10% charcoal stripped FBS. […] The cell number was determined at the days indicated. […] The cell number was determined at the indicated days. **, P<0.01; ***, P<0.001. […]"}, "[2]": {"system": "MCF7-SHON cells", "assay": "Total cell number assays in MCF7-Vec and MCF7-SHON stable cells", "format": "cell-based, human", "protocol": "as §1"}, "[3]": {"system": "breast cancer", "settings": "adjuvant therapy for 5 years, cited from earlier work"}},
  "data": [
    {"smiles": "C[C@]12CC[C@@H]3c4ccc(O)cc4CC[C@H]3[C@@H]1CC[C@@H]2O", "note": "[E2, 17β-estradiol]", "values": [
      {"measurement": "SHON mRNA levels", "setting": "[1]; 10 nM E2, MCF-7 cells, RT-PCR", "result": "increase in SHON mRNA levels in a time dependent manner"},
      {"measurement": "SHON protein expression", "setting": "[1]; 10 nM E2 for 72 h, MCF7-Vec and MCF7-SHON cells, Western blot", "result": "increased"},
      {"measurement": "cell number", "setting": "[2]; 10 nM E2, MCF7-SHON compared with MCF-Vec cells", "result": "synergistic increase in cell number"}
    ]},
    {"smiles": "C[C@]12CC[C@@H]3c4ccc(O)cc4C[C@@H](CCCCCCCCC[S+]([O-])CCCC(F)(F)C(F)(F)F)[C@H]3[C@@H]1CC[C@@H]2O", "note": "(stereo partly drawn) [ICI 182780]", "values": [
      {"measurement": "SHON-stimulated growth", "setting": "[2]; 100 nM ICI, ER+ MCF-7 cells", "result": "partially attenuated SHON-stimulated growth advantages"}
    ]},
    {"smiles": "CC/C(=C(\\c1ccccc1)c1ccc(OCCN(C)C)cc1)c1ccccc1", "note": "[tamoxifen]", "values": [
      {"measurement": "absolute reduction in mortality", "setting": "[3]; at 15 years", "result": 9.2, "unit": "%"},
      {"measurement": "reduction in the annual breast cancer death rate", "setting": "[3]", "result": 34, "unit": "%"}
    ]}
  ]
}
